Measured values reported in patent EP4782434A1, “N-SULFONYL CARBOXAMIDE COMPOUND, AND PREPARATION METHOD THEREFOR AND USE THEREOF” (Nutshell Therapeutics (Shanghai) Co., Ltd., priority 2023, dated 2025).

Assay: Pharmacokinetic study in rats
Type: in vivo
Conditions: rat, plasma; male Wistar-Han rats, dose 30 mg/kg; route not stated in the table (oral gavage vehicle given)
Procedure: • 1. Experimental objective: To test the pharmacokinetics of the compounds in in vivo experiments using Wistar-Han rats. • 2. Experimental instruments and materials:
Animal: Wistar-Han rats (male)
Oral gavage: 1% methylcellulose aqueous solution.
Six male rats were used. On the evening prior to administration, the animals were fasted, with free access to water. During the experimental period, […] had free access to food and water. The animals were administered either by intravenous injection or intragastric gavage, after which the status of the animals was observed and any abnormal manifestations were recorded. Blood was collected via jugular vein puncture at 0.0833, 0.25, 1, 2, 4, 8, and 24 hours following intravenous administration; and at 0.25, 0.5, 1, 2, 4, 6, 8, and 24 hours following intragastric gavage. […]
A standard curve was established using the internal standard method, with the theoretical concentrations of the standard curve as the abscissa and the peak area ratio (peak area of test compound / peak area of internal standard) as the ordinate. […] Unknown samples were calculated via the standard curve. Pharmacokinetic parameters were calculated using the non-compartmental analysis (NCA) model of WinNonlin 8.2 software and presented in the report. […]

- AUC(0-t): 11700 ng·h/mL
- Cmax: 8300 ng/mL
Compound: [2H]C([2H])([2H])O[C@@H](C)c1ccc(CS(=O)(=O)NC(=O)c2ccc(C([2H])([2H])[2H])cc2-c2cc(Cl)ncc2OC)cc1 [cpd-17, (S)-2-(2-Chloro-5-methoxypyridin-4-yl)-N-((4-(1-(methoxy-d3)ethyl)benzyl)sulfonyl)-4-(methyl-d3)benzamide]
